Source: ChEMBL document CHEMBL3045991, “Synthesis of new 2(1H)-quinoxalinone derivatives for antimicrobial and antiinflammatory evaluation” (Med Chem Res, 2009)

How the values were obtained:
[1] = system: Escherichia coli; assay: Antibacterial activity against Escherichia coli at 10 mg/ml by cup-plate technique; type: functional; settings: read-out: DIZ
[2] = system: Bacillus subtilis; assay: Antibacterial activity against Bacillus subtilis at 10 mg/ml by cup-plate technique; type: functional; settings: read-out: DIZ
[3] = system: Staphylococcus aureus; assay: Antibacterial activity against Staphylococcus aureus at 10 mg/ml by cup-plate technique; type: functional; settings: read-out: DIZ
[4] = system: Rattus norvegicus; assay: Gastrointestinal toxicity in Rattus norvegicus albino (rat) assessed as incidence of gastric ulceration at 0.9 mg/100 g body weight, po qd; type: organism-based, Stomach; settings: in vivo
[5] = system: Rattus norvegicus; assay: Gastrointestinal toxicity in Rattus norvegicus albino (rat) assessed as ulcer index at 0.9 mg/100 g body weight, po qd; type: organism-based; settings: in vivo
[6] = system: Rattus norvegicus; assay: Anti-inflammatory activity in Rattus norvegicus albino (rat) assessed as reduction of carrageenan-induced paw edema thickness at 0.9 mg/100 g body weight, ip administered 1 hr before carrageenan-challenge measured after 4 hr (reference value: 0.88 +/- 0.03 mm); type: functional
[7] = system: Rattus norvegicus; assay: Anti-inflammatory activity in Rattus norvegicus albino (rat) assessed as reduction of carrageenan-induced paw edema thickness at 0.9 mg/100 g body weight, ip administered 1 hr before carrageenan-challenge measured after 3 hr (reference value: 0.88 +/- 0.03 mm); type: functional
[8] = system: Rattus norvegicus; assay: Anti-inflammatory activity in Rattus norvegicus albino (rat) assessed as reduction of carrageenan-induced paw edema thickness at 0.9 mg/100 g body weight, ip administered 1 hr before carrageenan-challenge measured after 2 hr (reference value: 0.88 +/- 0.03 mm); type: functional
[9] = system: Rattus norvegicus; assay: Anti-inflammatory activity in Rattus norvegicus albino (rat) assessed as reduction of carrageenan-induced paw edema thickness at 0.9 mg/100 g body weight, ip administered 1 hr before carrageenan-challenge measured after 1 hr (reference value: 0.77 +/- 0.02 mm); type: functional

Compound | zone of inhibition at 10000 µg/mL [1] [mm] | zone of inhibition at 10000 µg/mL [2] [mm] | zone of inhibition at 10000 µg/mL [3] [mm] | Activity [4] [%] | UI [5] | Activity [6] [mm] | Activity [7] [mm] | Activity [8] [mm] | Activity [9] [mm]
O=C1NC2CCCCC2N=C1/C=N/Nc1ccc(Br)cc1 (stereo not drawn) | 8 | 11 | 13 |  |  |  |  |  | 
C=CCNC(=S)NNC(=O)Cc1nc2ccccc2[nH]c1=O | 7 | 8 | 9 |  |  |  |  |  | 
O=c1[nH]c2ccccc2nc1Cc1nnc(S)o1 |  | 10 | 11 | 80 | 240 | 0.52 | 0.6 | 0.52 | 0.57
Nn1c(S)nnc1Cc1nc2ccccc2[nH]c1=O |  |  |  | 0 | 0 | 0.62 | 0.6 | 0.62 | 0.67
C=CCNC(=S)NNC(=O)CC1=NC2CCCCC2NC1=O (stereo not drawn) | 9 | 11 | 12 |  |  |  |  |  | 
Cc1ccc(N/N=C/C2=NC3CCCCC3NC2=O)cc1 (stereo not drawn) | 5 | 7 | 6 |  |  |  |  |  | 
Cc1ccc(-c2csc(=S)n2NC(=O)Cc2nc3ccccc3[nH]c2=O)cc1 |  |  |  | 0 | 0 | 0.55 | 0.6 | 0.67 | 0.7
O=C1NC2CCCCC2N=C1/C=N/Nc1ccc(F)cc1 (stereo not drawn) | 7 | 17 | 16 |  |  |  |  |  | 
O=C(Cc1nc2ccccc2[nH]c1=O)Nn1c(-c2ccccc2)csc1=S |  |  |  | 80 | 240 | 0.52 | 0.55 | 0.55 | 0.57
O=C(O)c1cn(C2CC2)c2cc(N3CCNCC3)c(F)cc2c1=O [CIPROFLOXACIN] | 12 | 19 | 17 |  |  |  |  |  | 
O=C1NC2CCCCC2N=C1/C=N/Nc1ccccc1 (stereo not drawn) | 4 | 8 | 6 |  |  |  |  |  | 
O=C(Cc1nc2ccccc2[nH]c1=O)Nn1c(-c2ccc(Cl)cc2)csc1=S |  |  |  | 0 | 0 | 0.45 | 0.47 | 0.5 | 0.55
COc1ccc2c(c1)c(CC(=O)O)c(C)n2C(=O)c1ccc(Cl)cc1 [INDOMETHACIN] |  |  |  | 100 | 500 |  |  |  | 
CCn1c(S)nnc1Cc1nc2ccccc2[nH]c1=O |  |  |  | 0 | 0 | 0.67 | 0.52 | 0.5 | 0.5
O=C1NC2CCCCC2N=C1/C=N/Nc1ccc(Cl)cc1 (stereo not drawn) | 6 | 15 | 16 |  |  |  |  |  | 
O=c1[nH]c2ccccc2nc1Cc1nnc(S)n1-c1ccccc1 |  |  |  | 0 | 0 | 0.47 | 0.52 | 0.55 | 0.55
O=C(CC1=NC2CCCCC2NC1=O)NNC(=S)Nc1ccccc1 (stereo not drawn) | 12 | 18 | 16 |  |  |  |  |  | 
Cc1ccc(-c2cc(C(F)(F)F)nn2-c2ccc(S(N)(=O)=O)cc2)cc1 [CELECOXIB] |  |  |  | 0 | 0 | 0.5 | 0.45 | 0.42 | 0.45
O=C(CC1=NC2CCCCC2NC1=O)NN1C(=O)c2ccccc2C1=O (stereo not drawn) | 6 |  |  |  |  |  |  |  | 
O=C(Cc1nc2ccccc2[nH]c1=O)NNC(=S)Nc1ccccc1 | 8 | 9 | 10 |  |  |  |  |  | 
